These results are taken from the Kinase Knowledgebase extract (Sharma et al. 2016).

Each structure is given as a SMILES string.

In this assay the target is PIK3CA (human) (UniProt P42336). In words: Inhibition of PIK3CA Kinase Activity.
Chain of PIK3CA (human) (P42336 whole entry, looked up): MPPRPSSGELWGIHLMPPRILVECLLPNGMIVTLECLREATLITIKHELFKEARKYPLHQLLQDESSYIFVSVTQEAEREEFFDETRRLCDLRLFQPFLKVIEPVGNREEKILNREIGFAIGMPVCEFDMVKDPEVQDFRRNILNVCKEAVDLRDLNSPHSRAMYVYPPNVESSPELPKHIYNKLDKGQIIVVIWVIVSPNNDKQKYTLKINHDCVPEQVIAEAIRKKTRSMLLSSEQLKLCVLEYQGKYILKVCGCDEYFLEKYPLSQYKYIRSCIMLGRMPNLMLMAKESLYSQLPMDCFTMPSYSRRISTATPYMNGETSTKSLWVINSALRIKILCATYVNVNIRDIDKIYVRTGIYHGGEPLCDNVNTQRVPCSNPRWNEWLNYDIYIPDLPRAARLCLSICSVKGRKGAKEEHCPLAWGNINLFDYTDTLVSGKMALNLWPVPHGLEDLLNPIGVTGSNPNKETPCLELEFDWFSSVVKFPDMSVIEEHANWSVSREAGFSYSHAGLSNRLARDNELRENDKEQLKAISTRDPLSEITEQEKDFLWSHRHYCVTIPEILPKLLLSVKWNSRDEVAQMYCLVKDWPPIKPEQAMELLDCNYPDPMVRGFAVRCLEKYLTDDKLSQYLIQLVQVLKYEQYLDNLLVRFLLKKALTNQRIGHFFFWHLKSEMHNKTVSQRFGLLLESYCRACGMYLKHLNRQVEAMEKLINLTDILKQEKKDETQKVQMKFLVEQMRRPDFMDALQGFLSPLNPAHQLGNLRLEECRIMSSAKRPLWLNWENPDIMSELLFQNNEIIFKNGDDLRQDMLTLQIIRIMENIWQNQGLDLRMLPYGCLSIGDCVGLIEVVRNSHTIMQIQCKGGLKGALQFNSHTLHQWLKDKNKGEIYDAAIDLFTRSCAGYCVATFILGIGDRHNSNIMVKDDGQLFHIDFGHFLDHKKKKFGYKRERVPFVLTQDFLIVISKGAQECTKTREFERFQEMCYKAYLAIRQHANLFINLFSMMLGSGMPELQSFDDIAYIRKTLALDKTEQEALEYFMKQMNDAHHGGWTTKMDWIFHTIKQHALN

The molecule `CC1(C)CCc2ncnc(N3CCOc4ccc(-c5cnc6sc(N)nc6c5)cc4C3)c2C1` returned an IC50 of 10 to 50 nM.

In turn, `COC1Cc2nc(CN(C)C)nc(N3CCOc4ccc(-c5cnc6nc(C)[nH]c6c5)cc4C3)c2CC1(C)C` (configuration not stated) registered a half-maximal inhibitory concentration (IC50) not above 10 nM.

`Cc1nc2c(c(N3CCOc4ccc(-c5cnc(N)c(S(=O)(=O)N(C)C)c5)cc4C3)n1)CC(C)(C)CC2` displayed a half-maximal inhibitory concentration (IC50) of 50 to 250 nM.

`Cc1nc2ncc(-c3ccc4c(c3)CN(c3nc(CNCC(C)C)nc5c3CC(C)(C)CC5)CCO4)cc2[nH]1` gave an IC50 of 10 to 50 nM.

`CC(C)Nc1nc2ccc(-c3ccc4c(c3)CN(c3ccnc5ccccc35)CCO4)cc2[nH]1` displayed a 50% inhibitory concentration (IC50) of 250 to 1000 nM.

In turn, `CC1(C)CCc2ncnc(N3CCOc4ccc(-c5cnc(N)c(S(=O)(=O)NCC(N)=O)c5)cc4C3)c2C1` gave an IC50 of 10 to 50 nM.

In the case of `Cc1nc2ncc(-c3ccc4c(c3)CN(c3ncnc(N5CCC5)c3C)CCO4)cc2[nH]1`, the IC50 lay in the range of 50 to 250 nM.

Regarding `CC[C@H]1CCc2c(ncnc2N2CCOc3ccc(-c4cnc(N)c(S(=O)(=O)N5C[C@@H]6C[C@H]5CN6)c4)cc3C2)C1`, the IC50 fell in the range of 10 to 50 nM.

`Cc1nc2cc(-c3ccc4c(c3)CN(c3nc(CNCCF)nc(C)c3C(C)C)CCO4)ccc2[nH]1` showed a half-maximal inhibitory concentration (IC50) of 10 to 50 nM.

For `CC1(C)CCc2ncnc(N3CCOc4ccc(-c5cnc(N)c(S(=O)(=O)NCC(O)C(F)(F)F)c5)cc4C3)c2C1` (configuration not stated), the 50% inhibitory concentration (IC50) lay within 10 to 50 nM.

`Cc1nc2ncc(-c3ccc4c(c3)CN(c3nc(CN5CC[C@@H](F)C5)nc5c3CC(C)(C)CC5)CCO4)cc2[nH]1` displayed an IC50 not above 10 nM.

The molecule `COCCNCc1nc2c(c(N3CCOc4ccc(-c5ccc6nc(C)[nH]c6c5)cc4C3)n1)CC(C)(C)CC2` had an IC50 of 10 to 50 nM.

Molecule `Cc1ncnc(N2CCOc3ccc(-c4ccc(N)nn4)cc3C2)c1Cc1ccc(F)cc1` registered a concentration for half-maximal inhibition (IC50) of 250 to 1000 nM.

For `CNCc1nc2c(c(N3CCOc4ccc(-c5cnc6nc(C)[nH]c6c5)cc4C3)n1)CC(C)(C)CC2`, the IC50 was not above 10 nM.

`Cc1nc2ncc(-c3ccc4c(c3)CN(c3ncnc(Cl)c3C)CCO4)cc2[nH]1` returned an IC50 of 50 to 250 nM.

On to `CCC1CCc2ncnc(N3CCOc4ccc(-c5cnc6nc(C)[nH]c6c5)cc4C3)c2C1` (configuration not stated), for which the IC50 lay in the range of 10 to 50 nM.

In the case of `CC1(C)CCc2ncnc(N3CCOc4ccc(-c5cnc(N)c(S(=O)(=O)NC[C@H]6CCCNC6)c5)cc4C3)c2C1`, the 50% inhibitory concentration (IC50) fell in the range of 50 to 250 nM.

With `Cc1ncnc(N2CCOc3ccc(-c4ccc(-c5ncc[nH]5)cc4)cc3C2)c1Cc1ccc(F)cc1`, the concentration for half-maximal inhibition (IC50) was not above 10 nM.

With `CC1=Cc2ncnc(N3CCOc4ccc(-c5cnc(N)c(S(=O)(=O)NCC6CCN(C)CC6)c5)cc4C3)c2CC1(C)C`, the IC50 lay within 50 to 250 nM.

`c1ccc2c(N3CCOc4ccc(-c5ccc6nc[nH]c6c5)cc4C3)ncnc2c1` returned an IC50 of 10 to 50 nM.

In turn, `CC1(C)CCc2ncnc(N3CCOc4ccc(-c5cnc(N)c(S(=O)(=O)NC[C@@H]6CCCN6)c5)cc4C3)c2C1` had an IC50 of 50 to 250 nM.

Consider `CC1(C)CCc2ncnc(N3CCOc4ccc(-c5cnc(N)c(S(=O)(=O)N6CCOCC6)c5)cc4C3)c2C1`, for which the IC50 lay within 50 to 250 nM.

`COc1ccc2c(N3CCOc4ccc(-c5ccc(-c6c[nH]cn6)cc5)cc4C3)nc(C)nc2c1` returned an IC50 of 50 to 250 nM.

The molecule `Cc1nc2cc(-c3ccc4c(c3)CN(c3nc([C@H]5CCCN5)nc5c3CC(C)(C)CC5)CCO4)ccc2[nH]1` gave a half-inhibitory concentration (IC50) of 10 to 50 nM.

`Cc1nc2ccc(-c3ccc4c(c3)CN(c3nc(CN5CC[C@@H](F)C5)nc5c3CC(C)(C)CC5)CCO4)cc2[nH]1` displayed a half-maximal inhibitory concentration (IC50) of 10 to 50 nM.

Turning to `CN1C[C@@H]2C[C@H]1CN2S(=O)(=O)c1cc(-c2ccc3c(c2)CN(c2ncnc4c2CC(C)(C)CC4)CCO3)cnc1N`, the IC50 was 50 to 250 nM.

`Cc1nc2ccc(-c3ccc4c(c3)CN(c3ncnc(C)c3Cc3cc(F)cc(F)c3)CCO4)cc2[nH]1` yielded a half-maximal inhibitory concentration (IC50) of 10 to 50 nM.

`COc1ccc2c(N3CCOc4ccc(-c5cccc(C(=O)O)c5)cc4C3)nc(C)nc2c1`: the IC50 was in the range of 250 to 1000 nM.

Take `CCN(CC)Cc1nc(C)c(C(C)C)c(N2CCOc3ccc(-c4ccc5nc(C)[nH]c5c4)cc3C2)n1`: the half-maximal inhibitory concentration (IC50) was in the range of 10 to 50 nM.

On to `CCNc1nc2ccc(-c3ccc4c(c3)CN(c3ccnc5ccc(F)cc35)CCO4)cc2[nH]1`, for which the IC50 was 10 to 50 nM.

The molecule `COc1ccc2c(N3CCOc4ccc(-c5cnc6sc(N)nc6c5)cc4C3)nc(C)nc2c1` registered an IC50 not above 10 nM.

Consider `Cc1nc2ccc(-c3ccc4c(c3)CN(c3ncnc(C)c3Cc3cccc(F)c3)CCO4)cc2[nH]1`, for which the IC50 fell in the range of 10 to 50 nM.

Turning to `Cc1nc2ccc(-c3ccc4c(c3)CN(c3nc(-c5ccccn5)nc5c3CC(C)(C)CC5)CCO4)cc2[nH]1`, the IC50 was in the range of 250 to 1000 nM.

With `COC(=O)Nc1nc2ccc(-c3ccc4c(c3)CN(c3ncnc5c3CC(C)(C)CC5)CCO4)cc2[nH]1`, the IC50 was in the range of 10 to 50 nM.

The molecule `COC(=O)Nc1nc2ccc(-c3ccc4c(c3)CN(c3ncnc5cc(OC)c(OC)cc35)CCO4)cc2[nH]1` had an IC50 of 10 to 50 nM.

Consider `Cc1nc2ccc(-c3ccc4c(c3)CN(c3ncnc5ccc(Br)cc35)CCO4)cc2[nH]1`, for which the IC50 lay within 50 to 250 nM.

`COC(=O)Nc1nc2ccc(-c3ccc4c(c3)CN(c3ccncn3)CCO4)cc2[nH]1` showed an IC50 of 250 to 1000 nM.

Turning to `Cc1nc2ccc(-c3ccc4c(c3)CN(c3nc(CO)nc(C)c3C(C)C)CCO4)cc2[nH]1`, the 50% inhibitory concentration (IC50) was 10 to 50 nM.

The molecule `Cc1nc2cc(-c3ccc4c(c3)CN(c3nc(CF)nc5c3CC(C)(C)CC5)CCO4)ccc2[nH]1` returned an IC50 of 10 to 50 nM.

`Cc1nc2ccc(-c3ccc4c(c3)CN(c3ncnc(C)c3Cc3ccc(Cl)cc3)CCO4)cc2[nH]1` displayed a half-inhibitory concentration (IC50) of 10 to 50 nM.

`Cc1nc2ncc(-c3ccc4c(c3)CN(c3nc(CNC(C)C)nc5c3CC(C)(C)CC5)CCO4)cc2[nH]1` gave a concentration for half-maximal inhibition (IC50) not above 10 nM.

In turn, `COC(=O)Nc1nc2ncc(-c3ccc4c(c3)CN(c3nc(CN(C)C)nc5c3CC(C)(C)CC5)CCO4)cc2[nH]1` showed a 50% inhibitory concentration (IC50) not above 10 nM.

On to `CC(C)(CO)CNS(=O)(=O)c1cc(-c2ccc3c(c2)CN(c2ncnc4c2CC(C)(C)CC4)CCO3)cnc1N`, for which the IC50 was in the range of 50 to 250 nM.

For the molecule `CCNc1nc2ccc(-c3ccc4c(c3)CN(c3ncnc(C)c3Cc3ccc(F)cc3)CCO4)cc2[nH]1`, the IC50 is not above 10 nM.

`Cc1nc2ccc(-c3ccc4c(c3)CN(c3ncnc5scc(C)c35)CCO4)cc2[nH]1` came in with an IC50 of 250 to 1000 nM.

For the molecule `Cc1nc2ccc(-c3ccc4c(c3)CN(c3ncnc(C)c3Cc3ccc(F)cc3)CCO4)cc2[nH]1`, the IC50 lay within 10 to 50 nM.

Molecule `COC(=O)Nc1nc2ccc(-c3ccc4c(c3)CN(c3ncnc(C)c3Cc3ccc(F)cc3)CCO4)cc2[nH]1` gave an IC50 not above 10 nM.

Molecule `Cc1nc2ccc(-c3ccc4c(c3)CN(c3nc(CN(C)C)nc5c3CC(C)(C)CC5)CCO4)cc2[nH]1` gave an IC50 not above 10 nM.

Consider `Cc1nc(N)sc1-c1ccc2c(c1)CN(c1ncnc3c1CCC(C)(C)C3)CCO2`, for which the IC50 is 50 to 250 nM.

In the case of `CC1(C)CCc2ncnc(N3CCOc4ccc(-c5cnc(N)c(S(=O)(=O)NCC(F)(F)F)c5)cc4C3)c2C1`, the 50% inhibitory concentration (IC50) is 50 to 250 nM.

Consider `Cc1nc2ncc(-c3ccc4c(c3)CN(c3ncnc(C)c3CC3CC3)CCO4)cc2[nH]1`, for which the IC50 lay within 50 to 250 nM.

For `Cc1ncnc(N2CCOc3ccc(-c4ccc5nc(N)nn5c4)cc3C2)c1Cc1ccc(F)cc1`, the half-maximal inhibitory concentration (IC50) lay in the range of 50 to 250 nM.

In turn, `Cc1nc2ccc(-c3ccc4c(c3)CN(c3ncnc5c3CCC(C)(C)C5)CCO4)cc2[nH]1` gave an IC50 of 50 to 250 nM.

Regarding `CC1=Cc2ncnc(N3CCOc4ccc(-c5cnc(N)c(S(=O)(=O)N6CC[C@@H](N)C6)c5)cc4C3)c2CC1(C)C`, the IC50 lay in the range of 10 to 50 nM.

Take `COc1ncc(-c2ccc3c(c2)CN(c2ncnc4c2CC(C)(C)CC4)CCO3)cc1NS(C)(=O)=O`: the 50% inhibitory concentration (IC50) was not above 10 nM.

Regarding `Cc1nc2ccc(-c3ccc4c(c3)CN(c3cc(-c5ccccc5)nc5ccccc35)CCO4)cc2[nH]1`, the concentration for half-maximal inhibition (IC50) lay within 50 to 250 nM.

`COC(=O)Nc1nc2ccc(-c3ccc4c(c3)CN(c3ccnc5cc(OC)c(OC)cc35)CCO4)cc2[nH]1` registered a half-maximal inhibitory concentration (IC50) not above 10 nM.

`c1cc(N2CCOc3ccc(-c4cnc5nc[nH]c5c4)cc3C2)ncn1`: the half-maximal inhibitory concentration (IC50) fell in the range of 250 to 1000 nM.

In the case of `Cc1nc2ccc(-c3ccc4c(c3)CN(c3ncnc5cc(C(F)(F)F)ccc35)CCO4)cc2[nH]1`, the half-inhibitory concentration (IC50) lay in the range of 50 to 250 nM.

For `Cc1nc2cc(-c3ccc4c(c3)CN(c3nc(N)nc(C)c3Cc3ccc(F)cc3)CCO4)ccc2[nH]1`, the IC50 is not above 10 nM.

For `Cc1nc2cc(-c3ccc4c(c3)CN(c3nc(CN(C)C)nc(C)c3Cl)CCO4)ccc2[nH]1`, the IC50 is 50 to 250 nM.

Consider `CCc1ncnc(N2CCOc3ccc(-c4ccc5nc(C)[nH]c5c4)cc3C2)c1C`, for which the 50% inhibitory concentration (IC50) lay in the range of 50 to 250 nM.

Molecule `Cc1nc2ccc(-c3ccc4c(c3)CN(c3ncnc5ccc(F)cc35)CCO4)cc2[nH]1` returned an IC50 of 50 to 250 nM.

For the molecule `Cc1ncnc(N2CCOc3ccc(-c4cnc5nc(N)cn5c4)cc3C2)c1Cc1ccc(F)cc1`, the half-inhibitory concentration (IC50) lay in the range of 50 to 250 nM.

As for `COc1ccc(-c2ccc3c(c2)CN(c2nc(CN(C)C)nc(C)c2C(C)C)CCO3)cc1NS(C)(=O)=O`, the half-maximal inhibitory concentration (IC50) lay in the range of 10 to 50 nM.

`CNS(=O)(=O)c1cc(-c2ccc3c(c2)CN(c2ncnc4c2CC(C)(C)C=C4)CCO3)cnc1N` had an IC50 of 10 to 50 nM.

`COc1ccc2c(N3CCOc4ccc(-c5ccc6[nH]cnc6c5)cc4C3)nc(CN(C)C)nc2c1` had a half-inhibitory concentration (IC50) not above 10 nM.

`Cc1nc2ccc(-c3ccc4c(c3)CN(c3ncncc3C)CCO4)cc2[nH]1` gave an IC50 of 250 to 1000 nM.

`COC(=O)Nc1nc2ccc(-c3ccc4c(c3)CN(c3ccnc5ccccc35)CCO4)cc2n1C`: the IC50 lay in the range of 250 to 1000 nM.

Molecule `Cc1nc2ccc(-c3ccc4c(c3)CN(c3ccnc(C)c3Cc3cccc(F)c3)CCO4)cc2[nH]1` registered a half-maximal inhibitory concentration (IC50) not above 10 nM.

Molecule `Cc1nc2ccc(-c3ccc4c(c3)CN(c3ncnc5ccc(O)cc35)CCO4)cc2[nH]1` returned an IC50 of 50 to 250 nM.

For `Cc1nc2ccc(-c3ccc4c(c3)CN(c3ncnc5ccc(OCC#N)cc35)CCO4)cc2[nH]1`, the IC50 was in the range of 10 to 50 nM.

Molecule `Cc1nc2cc(-c3ccc4c(c3)CN(c3nc(C5CCCN5)nc5c3CC(C)(C)CC5)CCO4)cnc2[nH]1` (configuration not stated) showed an IC50 of 10 to 50 nM.

`CCNc1nc2ncc(-c3ccc4c(c3)CN(c3ccncn3)CCO4)cc2[nH]1` returned a half-inhibitory concentration (IC50) of 50 to 250 nM.

With `COC(=O)Nc1nc2ccc(-c3ccc4c(c3)CN(c3ncccc3C)CCO4)cc2[nH]1`, the IC50 was in the range of 50 to 250 nM.

Regarding `Cc1nc2ccc(-c3ccc4c(c3)CN(c3ncnc(C)c3C(C)C)CCO4)cc2[nH]1`, the IC50 fell in the range of 50 to 250 nM.

For the molecule `CN(C)Cc1nc2c(c(N3CCOc4ccc(-c5cnc(Cl)c(NS(C)(=O)=O)c5)cc4C3)n1)CC(C)(C)CC2`, the half-inhibitory concentration (IC50) is not above 10 nM.

A word on the IC50: it is the concentration at which inhibition is half-maximal. Low readings indicate greater potency in that assay, high ones weaker potency in that assay.
